Reference: PubChem BioAssay AID248 (DTP/NCI, 2004)
Inconclusive results and toxic doses are left out.

Tested on: L1210 leukemia ip in BDF1 mice, survival T/C
Assay: NCI In Vivo Anticancer Drug Screen. Data for tumor model L1210 Leukemia (intraperitoneal) in B6D2F1 (BDF1) mice
Details: endpoint: mean survival time, higher = longer survival
Outline: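 Tumor cells were implanted, animals were treated, and survival was followed. The result divides the treated measurement by the vehicle-control measurement.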

[1] = dose: 12.5 mg/kg/injection, schedule: Q01DX001 (ip), vehicle: Klucel (hydroxypropylcellulose) (HPC)
[2] = dose: 25.0 mg/kg/injection, schedule: Q01DX001 (ip), vehicle: Klucel (hydroxypropylcellulose) (HPC)
[3] = dose: 100.0 mg/kg/injection, schedule: Q01DX009 (ip), vehicle: Klucel (hydroxypropylcellulose) (HPC)
[4] = dose: 100.0 mg/kg/injection, schedule: Q04DX003 (ip), vehicle: Klucel (hydroxypropylcellulose) (HPC)
[5] = dose: 200.0 mg/kg/injection, schedule: Q01DX009 (ip), vehicle: Klucel (hydroxypropylcellulose) (HPC)
[6] = dose: 200.0 mg/kg/injection, schedule: Q04DX003 (ip), vehicle: Klucel (hydroxypropylcellulose) (HPC)
[7] = dose: 400.0 mg/kg/injection, schedule: Q01DX009 (ip), vehicle: Klucel (hydroxypropylcellulose) (HPC)
[8] = dose: 400.0 mg/kg/injection, schedule: Q04DX003 (ip), vehicle: Klucel (hydroxypropylcellulose) (HPC)
[9] = dose: 100.0 mg/kg/injection, schedule: Q04DX003 (ip), vehicle: saline with Tween-80
[10] = dose: 200.0 mg/kg/injection, schedule: Q04DX003 (ip), vehicle: saline with Tween-80
[11] = dose: 400.0 mg/kg/injection, schedule: Q04DX003 (ip), vehicle: saline with Tween-80

With `CCOc1ccc(Nc2ncnc3nc[nH]c23)cc1CN(CCCl)CCCl` the T/C (dose: 1.2 mg/kg/injection, schedule: Q01DX Z (ip), vehicle: carboxymethylcellulose (CMC)) was 98 % of control, the T/C (dose: 1.3 mg/kg/injection, schedule: Q01DX Z (ip), vehicle: carboxymethylcellulose (CMC)) was 114 % of control and the T/C (dose: 1.56 mg/kg/injection, schedule: Q04DX003 (ip), vehicle: saline) was 113 % of control. The T/C (dose: 1.9 mg/kg/injection, schedule: Q01DX Z (ip), vehicle: carboxymethylcellulose (CMC)) was 117 % of control, the T/C (dose: 2.5 mg/kg/injection, schedule: Q01DX Z (ip), vehicle: carboxymethylcellulose (CMC)) was 103 % of control and the T/C (dose: 3.3 mg/kg/injection, schedule: Q04DX003 (ip), vehicle: saline) was 111 % of control. For the same molecule, the T/C (dose: 4.2 mg/kg/injection, schedule: Q01DX Z (ip), vehicle: carboxymethylcellulose (CMC)) was 116 % of control, the T/C (dose: 5.0 mg/kg/injection, schedule: Q01DX001 (ip), vehicle: carboxymethylcellulose (CMC)) was 104 % of control and the T/C (dose: 5.0 mg/kg/injection, schedule: Q01DX Z (ip), vehicle: carboxymethylcellulose (CMC)) was 116 % of control. For the same molecule, the T/C (dose: 5.0 mg/kg/injection, schedule: Q04DX003 (ip), vehicle: saline) was 122 % of control, the T/C (dose: 7.5 mg/kg/injection, schedule: Q04DX003 (ip), vehicle: saline) was 121 % of control and the T/C (dose: 10.0 mg/kg/injection, schedule: Q01DX001 (ip), vehicle: carboxymethylcellulose (CMC)) was 102 % of control. The T/C (dose: 10.0 mg/kg/injection, schedule: Q01DX Z (ip), vehicle: carboxymethylcellulose (CMC)) was 110 % of control, the T/C (dose: 20.0 mg/kg/injection, schedule: Q01DX001 (ip), vehicle: carboxymethylcellulose (CMC)) was 109 % of control and the T/C (dose: 40.0 mg/kg/injection, schedule: Q01DX001 (ip), vehicle: carboxymethylcellulose (CMC)) was 102 % of control.
`NC(=O)c1ccccc1N=NN(CCF)CCF` was tested, and the T/C (dose: 6.25 mg/kg/injection, schedule: Q01DX009 (ip), vehicle: Klucel (hydroxypropylcellulose) (HPC)) was 120 % of control, the T/C (dose: 6.25 mg/kg/injection, schedule: Q04DX003 (ip), vehicle: Klucel (hydroxypropylcellulose) (HPC)) was 112 % of control and the T/C (dose: 12.0 mg/kg/injection, schedule: Q04DX003 (ip), vehicle: Klucel (hydroxypropylcellulose) (HPC)) was 153 % of control. For the same molecule, the T/C [1] was 106 % of control, the T/C (dose: 12.5 mg/kg/injection, schedule: Q04DX003 (ip), vehicle: Klucel (hydroxypropylcellulose) (HPC)) was 156 % of control and the T/C [2] was 113 % of control. For the same molecule, the T/C (dose: 25.0 mg/kg/injection, schedule: Q04DX003 (ip), vehicle: Klucel (hydroxypropylcellulose) (HPC)) was 104 % of control.
`Cc1c(Cl)c(Cl)cc([N+](=O)[O-])c1Cl` was tested, and the T/C (dose: 66.0 mg/kg/injection, schedule: Q01DX009 (sc), vehicle: olive oil, sesame oil, peanut oil) was 100 % of control, the T/C (dose: 100.0 mg/kg/injection, schedule: Q01DX009 (sc), vehicle: olive oil, sesame oil, peanut oil) was 98 % of control and the T/C (dose: 100.0 mg/kg/injection, schedule: Q04DX003 (sc), vehicle: olive oil, sesame oil, peanut oil) was 105 % of control. The T/C (dose: 150.0 mg/kg/injection, schedule: Q01DX009 (sc), vehicle: olive oil, sesame oil, peanut oil) was 102 % of control, the T/C (dose: 200.0 mg/kg/injection, schedule: Q01DX009 (sc), vehicle: olive oil, sesame oil, peanut oil) was 94 % of control and the T/C (dose: 200.0 mg/kg/injection, schedule: Q04DX003 (sc), vehicle: olive oil, sesame oil, peanut oil) was 106 % of control. The T/C (dose: 400.0 mg/kg/injection, schedule: Q01DX009 (sc), vehicle: olive oil, sesame oil, peanut oil) was 105 % of control and the T/C (dose: 400.0 mg/kg/injection, schedule: Q04DX003 (sc), vehicle: olive oil, sesame oil, peanut oil) was 97 % of control.
`Cn1c(=O)c2c(nc(Cc3ccc(NC(=O)c4ccc(C(=O)Nc5ccc(Cc6nc7c(c(=O)n(C)c(=O)n7C)n6C)cc5)cc4)cc3)n2C)n(C)c1=O` was tested, and the T/C (dose: 50.0 mg/kg/injection, schedule: Q01DX001 (ip), vehicle: other) was 97 % of control, the T/C (dose: 100.0 mg/kg/injection, schedule: Q01DX001 (ip), vehicle: other) was 94 % of control and the T/C (dose: 200.0 mg/kg/injection, schedule: Q01DX001 (ip), vehicle: other) was 94 % of control. The T/C (dose: 400.0 mg/kg/injection, schedule: Q01DX001 (ip), vehicle: other) was 92 % of control.
With `CC(=O)O[C@H]1CC[C@@]2(C)[C@@H](CC[C@@H]3[C@@H]2CC[C@]2(C)[C@@H](C(C)=O)CC[C@@H]32)C1` the T/C (dose: 100.0 mg/kg/injection, schedule: Q04DX002 (ip), vehicle: Klucel (hydroxypropylcellulose) (HPC)) was 96 % of control, the T/C (dose: 200.0 mg/kg/injection, schedule: Q04DX002 (ip), vehicle: Klucel (hydroxypropylcellulose) (HPC)) was 96 % of control and the T/C (dose: 400.0 mg/kg/injection, schedule: Q04DX002 (ip), vehicle: Klucel (hydroxypropylcellulose) (HPC)) was 96 % of control.
In the case of `[O-][N+](=C\c1ccccc1)/[N+]([O-])=C\c1ccccc1`, the T/C (dose: 100.0 mg/kg/injection, schedule: Q01DX001 (ip), vehicle: saline) is reported as 98 % of control, the T/C (dose: 200.0 mg/kg/injection, schedule: Q01DX001 (ip), vehicle: saline) is reported as 95 % of control and the T/C (dose: 400.0 mg/kg/injection, schedule: Q01DX001 (ip), vehicle: saline) is reported as 98 % of control.
`O=C(NCCCOc1ccc([N+](=O)[O-])cc1Cl)Nc1cccc(S(=O)(=O)F)c1` was tested, and the T/C [3] was 92 % of control, the T/C [4] was 106 % of control and the T/C [5] was 98 % of control. The T/C [6] was 103 % of control, the T/C [7] was 103 % of control and the T/C [8] was 95 % of control.
In the case of `CCOC(=O)C(C)(C(=O)OCC)c1cc(OC)c(C)cc1Br`, the T/C (dose: 50.0 mg/kg/injection, schedule: Q04DX003 (ip), vehicle: saline with Tween-80) is reported as 100 % of control, the T/C [9] is reported as 103 % of control and the T/C [10] is reported as 100 % of control. The T/C [11] was 97 % of control.
With `COc1ccc(CC(CO)C(CO)Cc2ccc(OC)c(OC)c2)cc1OC` (configuration not stated) the T/C [3] was 97 % of control, the T/C [4] was 98 % of control and the T/C [5] was 93 % of control. For the same molecule, the T/C [6] was 101 % of control, the T/C [7] was 93 % of control and the T/C [8] was 100 % of control.
`O=C(Nc1ccccc1)Oc1c(Cl)cc(Cl)cc1Cl` was tested, and the T/C (dose: 0.78 mg/kg/injection, schedule: Q04DX002 (ip), vehicle: Klucel (hydroxypropylcellulose) (HPC)) was 97 % of control, the T/C (dose: 1.56 mg/kg/injection, schedule: Q04DX002 (ip), vehicle: Klucel (hydroxypropylcellulose) (HPC)) was 112 % of control and the T/C (dose: 3.13 mg/kg/injection, schedule: Q04DX002 (ip), vehicle: Klucel (hydroxypropylcellulose) (HPC)) was 94 % of control. For the same molecule, the T/C (dose: 6.25 mg/kg/injection, schedule: Q04DX002 (ip), vehicle: Klucel (hydroxypropylcellulose) (HPC)) was 92 % of control, the T/C (dose: 12.5 mg/kg/injection, schedule: Q04DX002 (ip), vehicle: Klucel (hydroxypropylcellulose) (HPC)) was 110 % of control and the T/C (dose: 25.0 mg/kg/injection, schedule: Q04DX002 (ip), vehicle: Klucel (hydroxypropylcellulose) (HPC)) was 95 % of control.
`CCOC(=O)c1ccc(NC(=S)Nc2ccc(C(=O)OCC)cc2)cc1` was tested, and the T/C (dose: 100.0 mg/kg/injection, schedule: Q01DX009 (ip), vehicle: saline with Tween-80) was 95 % of control, the T/C [9] was 89 % of control and the T/C (dose: 200.0 mg/kg/injection, schedule: Q01DX009 (ip), vehicle: saline with Tween-80) was 93 % of control. The T/C [10] was 87 % of control, the T/C (dose: 400.0 mg/kg/injection, schedule: Q01DX009 (ip), vehicle: saline with Tween-80) was 95 % of control and the T/C [11] was 94 % of control.
For `CCN(N=Nc1ccc(C)cc1)N=Nc1ccc(C)cc1`, the T/C [3] was 93 % of control, the T/C [4] was 100 % of control and the T/C [5] was 88 % of control. The T/C [6] was 100 % of control, the T/C [7] was 88 % of control and the T/C [8] was 93 % of control.
For `c1ccc2c(c1)CC1CCCCN1C2` (configuration not stated), the T/C [1] was 93 % of control, the T/C [2] was 98 % of control and the T/C (dose: 25.0 mg/kg/injection, schedule: Q01DX009 (ip), vehicle: saline) was 96 % of control. The T/C (dose: 50.0 mg/kg/injection, schedule: Q01DX001 (ip), vehicle: Klucel (hydroxypropylcellulose) (HPC)) was 93 % of control, the T/C (dose: 50.0 mg/kg/injection, schedule: Q01DX009 (ip), vehicle: saline) was 106 % of control and the T/C (dose: 100.0 mg/kg/injection, schedule: Q04DX003 (ip), vehicle: saline) was 88 % of control.
With `CC(=O)OC(C)c1ccccc1` (configuration not stated) the T/C [3] was 112 % of control, the T/C [5] was 106 % of control and the T/C [7] was 101 % of control.
For `CC(=O)c1cccc(NC(=O)OC2CCCC(C)C2)c1` (configuration not stated), the T/C [3] was 93 % of control, the T/C [5] was 101 % of control and the T/C [7] was 97 % of control.
In the case of `O=C1c2ccccc2C(=O)C1(Br)C(Br)c1ccccc1` (configuration not stated), the T/C [3] is reported as 102 % of control, the T/C [4] is reported as 96 % of control and the T/C [5] is reported as 101 % of control. For the same molecule, the T/C [6] was 94 % of control, the T/C [7] was 93 % of control and the T/C [8] was 96 % of control.
